Measured values as given in patent US11297835B2, “Aqueous compositions of perillic acid compounds” (B.R.A.I.N. BIOTECHNOLOGY RESEARCH AND INFORMATION NETWORK AG, priority 2016, dated 2022).
Values belong to the compound of their own block, whether it stands above or below them.

Experiments:
[1] = tested on: Candida albicans ATCC®10231; assay: Conservation efficacy testing in cosmetic oil-water-emulsion; format: cell-based; conditions: O/W emulsion pH 5-6, room temperature
Procedure: (§1) The conservation efficacy of sodium perillate in a final product was determined using two different formulations: • a) an oil-water-emulsion pH 5.5 (example for a cosmetic product), • b) a water-based glucose solution at pH 3.5 (example for a non-carbonated soft drink).
(§2) Hereby, a defined inoculum of the test strains was added directly to the formulations. In order to examine product preservation by sodium perillate or perillic acid, the formulations were incubated at room temperature for 4 to 16 weeks, respectively. Samples were taken every 7 days and […] (cfu) were counted on agar plates.
(§3) Among others the following strains were used to determine the efficacy of sodium peril-late in an oil-water emulsion: Escherichia coli ATCC®8739, Pseudomonas aeruginosa ATCC®9027, Stapyhlococcus aureus ATCC®6538, Candida albicans ATCC®10231, and Aspergillus brasiliensis ATCC®16404.
(§4) Table 2 Conservation efficacy testing of a typical cosmetic oil-water-emulsion at pH 5-6 supplemented with sodium perillate using five classical microbial test strains. All formulations were inoculated with a defined cell concentration and incubated over a time of 28 days at room temperature under standardized conditions. After 7, 14, 21 and 28 days samples were taken and the colony forming units (cfu) were calculated.

[2] = tested on: Staphylococcus aureus ATCC®6538; assay: as above; format: cell-based; conditions: O/W emulsion pH 5-6, room temperature
Procedure: as §1, §2, §3, §4

[3] = tested on: Aspergillus brasiliensis ATCC®16404; assay: as above; format: cell-based; conditions: O/W emulsion pH 5-6, room temperature
Procedure: as §1, §2, §3, §4

[4] = tested on: Escherichia coli ATCC®8739; assay: as above; format: cell-based; conditions: O/W emulsion pH 5-6, room temperature
Procedure: as §1, §2, §3, §4

[5] = tested on: Pseudomonas aeruginosa ATCC®9027; assay: as above; format: cell-based; conditions: O/W emulsion pH 5-6, room temperature
Procedure: as §1, §2, §3, §4

[6] = Stability investigation of sodium perillate on storage (TLC, GC, HPLC recovery); format: physicochemical; conditions: stored 12 months at 4° C., 22-25° C. and 50° C., gas and liquid chromatography
Procedure: Sodium perillate was prepared by adding a defined volume of a 0.1 M sodium hydroxide (NaOH) solution to perillic acid to give an aqueous solution of pH 7.0. The water was removed by evaporation resulting in a colorless solid. In order to investigate the stability of sodium perillate, the compound was stored for 12 months at 4° C., 22-25° C. (resemble room temperature) and 50° C. At certain time intervals all samples were examined and evaluated qualitatively using thin layer chromatography and quantitatively using gas and liquid chromatography. The results were compared to the stability of R perillic acid. […] These experiments highlight the long-term stability of sodium perillate.
Table 5 Recovery of sodium perillate measured by liquid chromatography (HPLC). Column: Phenomenex Luna 018. Method: 70% acetonitrile and 30% water, isocratic. Recovery values were calculated according to a calibration curve performed with sodium perillate in the range of 0.05-2 mM in acetonitrile. Detection was carried out by UV-light (DAD-detector) at 217 and 240 nm.

[7] = tested on: Candida albicans ATCC®10231; assay: MIC, microdilution method adapted from DIN EN ISO 20776-1:2006; format: cell-based; conditions: no growth after 24 h and 72 h
Procedure: (§5) The antimicrobial activity of sodium perillate was examined in vitro using the microdilution method adapted from DIN EN ISO 20776-1:2006. R-Perillic acid and S-perillic acid were used as reference compounds. All experiments were done in 96-well plates in a final volume of 200 μL. Stock solutions of the investigated compounds were prepared in 25 mM buffer. The procedure was conducted as following: 4 μL of the particular stock solution were mixed with 196 μL culture medium containing a defined inoculum of the respective target strain. Sterile controls (not inoculated) and growth controls (buffer in-stead of compound added) were performed. All compound concentrations were tested in triplicate. The following strains were examined: Escherichia coli ATCC®8739, Pseudomonas aeruginosa ATCC®9027, Stapyhlococcus aureus ATCC®6538, Candida albicans ATCC®10231 and Aspergillus brasiliensis ATCC®16404. The following culture media were used: Mueller-Hinton II Bouillon (Escherichia coli, Pseudomonas aeruginosa and Staphylococcus aureus), yeast peptone dextrose (Candida albicans) and potato dextrose (Aspergillus brasiliensis). All culture media were buffered with 25 mM MES-buffer. For compound testing the plates were incubated at 37° C. (Escherichia coli, Pseudomonas aeruginosa and Staphylococcus aureus), at 28° C. (Candida albicans) and at 25° C. (Aspergillus brasiliensis). Plates were evaluated after 24 h and 72 h, respectively. The minimal inhibitory concentration is defined as the concentration where no microbial growth was observed after 24 h and 72 h incubation at the specified temperature.
(§6) Table 1 Determination of the minimal inhibition concentration (MIC, % w/v) of sodium perillate against five classical spoiling organisms under acidic (pH<6.5) and alkaline (pH>7.5) conditions using the microdilution method adapted according to DIN EN ISO 20776-1:2006. The experiments were performed in micro-well plates in a final volume of 200 μL. MIC-values are given according to the following letter code. A>1% w/v, B=0.5-1% w/v, C=0.1-0.5% w/v. D<0.1% w/v.

[8] = tested on: Staphylococcus aureus ATCC®6538; assay: as above; format: cell-based; conditions: no growth after 24 h and 72 h
Procedure: as §5, §6

[9] = tested on: Aspergillus brasiliensis ATCC®16404; assay: as above; format: cell-based; conditions: pH <6.5; no growth after 24 h and 72 h
Procedure: as §5, §6

[10] = tested on: Escherichia coli ATCC®8739; assay: as above; format: cell-based; conditions: no growth after 24 h and 72 h
Procedure: as §5, §6

[11] = tested on: Pseudomonas aeruginosa ATCC®9027; assay: as above; format: cell-based; conditions: no growth after 24 h and 72 h
Procedure: as §5, §6

[12] = Solubility in water-based systems; format: physicochemical; conditions: neutral pH; compared to the free perillic acid
Saccharomyces sp. = assay: Conservation efficacy testing in aqueous formulation (juice matrix); format: cell-based; conditions: aqueous formulation (juice matrix) pH 2.5-4, room temperature
Procedure: as §1, §2
(§7) Among others the following species were used to determine the efficacy of sodium perillate in a water-based glucose formulation: Saccharomyces sp., Schizosaccharomyces sp., Asaia sp., Lactobacillus sp., and Aspergillus sp.
(§8) Table 3 Illustration of cell reduction using sodium perillate in a typical aqueous formulation (juice matrix) for beverages pH 2.5-4 supplemented with sodium perillate. Conservation efficacy testing was performed using five microbial test strains: Saccharomyces sp., Schizosaccharomyces sp., Asaia sp., Lactobacillus sp., and Aspergillus sp. All formulations were inoculated with a defined cell concentration and incubated at room temperature under standardized conditions. After 7, 14, 21 and 28 days samples were taken and the colony forming units (cfu) were calculated and shown here.

Lactobacillus sp. = assay: as above; format: cell-based; conditions: aqueous formulation (juice matrix) pH 2.5-4, room temperature
Procedure: as §1, §2, §7, §8

Schizosaccharomyces sp. = assay: as above; format: cell-based; conditions: aqueous formulation (juice matrix) pH 2.5-4, room temperature
Procedure: as §1, §2, §7, §8

Aspergillus sp. = assay: as above; format: cell-based; conditions: aqueous formulation (juice matrix) pH 2.5-4, room temperature
Procedure: as §1, §2, §7, §8

Asaia sp. = assay: as above; format: cell-based; conditions: aqueous formulation (juice matrix) pH 2.5-4, room temperature
Procedure: as §1, §2, §7, §8

pKa = format: physicochemical; conditions: weak acid of which sodium perillate is the salt

Degradation products detected [6]: no degradation products | MIC ([7]; pH <6.5): D (D<0.1% w/v) | MIC ([7]; pH >7.5): C (C=0.1-0.5% w/v) | MIC ([8]; pH <6.5): D (D<0.1% w/v) | MIC ([8]; pH >7.5): B (B=0.5-1% w/v) | MIC [9]: D (D<0.1% w/v) | MIC ([10]; pH <6.5): C (C=0.1-0.5% w/v) | MIC ([10]; pH >7.5): B (B=0.5-1% w/v) | MIC ([11]; pH <6.5): B (B=0.5-1% w/v) | MIC ([11]; pH >7.5): A (A>1% w/v) | Solubility in water-based systems [12]: higher solubility
SMILES: C=C(C)C1CC=C(C(=O)[O-])CC1.[Na+] (stereo not drawn) [Sodium perillate, sodium perillate]
Reduced log-steps After T28 ([1]; after 28 days): 2 log-steps | CFU/mL at Sampling Timepoint T0 ([1]; day 0): 68,000 CFU/mL | CFU/mL at Sampling Timepoint T7 ([1]; day 7): 8,260 CFU/mL | CFU/mL at Sampling Timepoint T14 ([1]; day 14): 1,925 CFU/mL | CFU/mL at Sampling Timepoint T21 ([1]; day 21): 4,100 CFU/mL | CFU/mL at Sampling Timepoint T28 ([1]; day 28): 630 CFU/mL | Reduced log-steps After T28 ([2]; after 28 days): 6 log-steps | CFU/mL at Sampling Timepoint T0 ([2]; day 0): 130,000 CFU/mL | CFU/mL at Sampling Timepoint T7 ([2]; day 7): 0 CFU/mL | CFU/mL at Sampling Timepoint T14 ([2]; day 14): 0 CFU/mL | CFU/mL at Sampling Timepoint T21 ([2]; day 21): 0 CFU/mL | CFU/mL at Sampling Timepoint T28 ([2]; day 28): 0 CFU/mL | Reduced log-steps After T28 ([3]; after 28 days): 2 log-steps | CFU/mL at Sampling Timepoint T0 ([3]; day 0): 11,000 CFU/mL | CFU/mL at Sampling Timepoint T7 ([3]; day 7): 13,000 CFU/mL | CFU/mL at Sampling Timepoint T14 ([3]; day 14): 2,270 CFU/mL | CFU/mL at Sampling Timepoint T21 ([3]; day 21): 2,900 CFU/mL | CFU/mL at Sampling Timepoint T28 ([3]; day 28): 170 CFU/mL | Reduced log-steps After T28 ([4]; after 28 days): 3 log-steps | CFU/mL at Sampling Timepoint T0 ([4]; day 0): 1,680,000 CFU/mL | CFU/mL at Sampling Timepoint T7 ([4]; day 7): 53,500 CFU/mL | CFU/mL at Sampling Timepoint T14 ([4]; day 14): 190 CFU/mL | CFU/mL at Sampling Timepoint T21 ([4]; day 21): 370 CFU/mL | CFU/mL at Sampling Timepoint T28 ([4]; day 28): 1,430 CFU/mL | Reduced log-steps After T28 ([5]; after 28 days): 3 log-steps | CFU/mL at Sampling Timepoint T0 ([5]; day 0): 580,000 CFU/mL | CFU/mL at Sampling Timepoint T7 ([5]; day 7): 45,000 CFU/mL | CFU/mL at Sampling Timepoint T14 ([5]; day 14): 11,500 CFU/mL | CFU/mL at Sampling Timepoint T21 ([5]; day 21): 805 CFU/mL | CFU/mL at Sampling Timepoint T28 ([5]; day 28): 235 CFU/mL | CFU/mL at Sampling Timepoint T0 (Saccharomyces sp.; day 0): 10 CFU/mL | CFU/mL at Sampling Timepoint T7 (Saccharomyces sp.; day 7): 23,900 CFU/mL | CFU/mL at Sampling Timepoint T14 (Saccharomyces sp.; day 14): 52,900 CFU/mL | CFU/mL at Sampling Timepoint T21 (Saccharomyces sp.; day 21): 530,000 CFU/mL | CFU/mL at Sampling Timepoint T28 (Saccharomyces sp.; day 28): 470,000 CFU/mL | CFU/mL at Sampling Timepoint T0 (Lactobacillus sp.; day 0): 10 CFU/mL | CFU/mL at Sampling Timepoint T7 (Lactobacillus sp.; day 7): 10 CFU/mL | CFU/mL at Sampling Timepoint T14 (Lactobacillus sp.; day 14): 56 CFU/mL | CFU/mL at Sampling Timepoint T21 (Lactobacillus sp.; day 21): 340 CFU/mL | CFU/mL at Sampling Timepoint T28 (Lactobacillus sp.; day 28): 910 CFU/mL | CFU/mL at Sampling Timepoint T0 (Schizosaccharomyces sp.; day 0): 55 CFU/mL | CFU/mL at Sampling Timepoint T7 (Schizosaccharomyces sp.; day 7): 350 CFU/mL | CFU/mL at Sampling Timepoint T14 (Schizosaccharomyces sp.; day 14): 3,265 CFU/mL | CFU/mL at Sampling Timepoint T21 (Schizosaccharomyces sp.; day 21): 4,990 CFU/mL | CFU/mL at Sampling Timepoint T0 (Aspergillus sp.; day 0): 10 CFU/mL | CFU/mL at Sampling Timepoint T7 (Aspergillus sp.; day 7): 0 CFU/mL | CFU/mL at Sampling Timepoint T14 (Aspergillus sp.; day 14): 0 CFU/mL | CFU/mL at Sampling Timepoint T21 (Aspergillus sp.; day 21): 0 CFU/mL | CFU/mL at Sampling Timepoint T28 (Aspergillus sp.; day 28): 0 CFU/mL | CFU/mL at Sampling Timepoint T0 (Asaia sp.; day 0): 45 CFU/mL | CFU/mL at Sampling Timepoint T7 (Asaia sp.; day 7): 17,250 CFU/mL | CFU/mL at Sampling Timepoint T14 (Asaia sp.; day 14): 8,940 CFU/mL | CFU/mL at Sampling Timepoint T21 (Asaia sp.; day 21): 725 CFU/mL | CFU/mL at Sampling Timepoint T28 (Asaia sp.; day 28): 685 CFU/mL

pKa (pKa): 4.96
SMILES: C=C(C)[C@@H]1CC=C(C(=O)O)CC1 [perillic acid]
